Results published in ChEMBL document CHEMBL1681696, “Discovery of benzimidazole pyrrolidinyl amides as prolylcarboxypeptidase inhibitors” (Bioorg Med Chem Lett, 2011).
The source made the active and inactive calls. No cut-off for these calls is given here.

Experiments:
[1] = target: T1, Lysosomal Pro-X carboxypeptidase (Mus musculus, UniProt Q7TMR0); assay: Inhibition of PrCP in mouse plasma assessed as angiotensin 3 cleavage; format: cell-free
T1 sequence (Q7TMR0 whole entry): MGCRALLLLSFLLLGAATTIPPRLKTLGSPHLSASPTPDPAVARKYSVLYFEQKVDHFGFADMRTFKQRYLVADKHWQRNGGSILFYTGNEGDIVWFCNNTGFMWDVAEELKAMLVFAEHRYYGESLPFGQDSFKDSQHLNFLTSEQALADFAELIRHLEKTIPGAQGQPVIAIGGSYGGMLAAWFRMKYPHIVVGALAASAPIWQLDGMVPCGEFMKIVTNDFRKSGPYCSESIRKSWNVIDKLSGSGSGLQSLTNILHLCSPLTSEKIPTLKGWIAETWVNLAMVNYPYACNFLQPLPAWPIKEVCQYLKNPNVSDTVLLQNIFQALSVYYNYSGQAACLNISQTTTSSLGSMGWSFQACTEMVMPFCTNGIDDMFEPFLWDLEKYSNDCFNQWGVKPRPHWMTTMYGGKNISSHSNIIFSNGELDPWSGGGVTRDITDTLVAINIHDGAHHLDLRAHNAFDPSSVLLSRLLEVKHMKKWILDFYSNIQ

[2] = Oral bioavailability in mouse at 2 mg/kg; format: ADME, organism-based; conditions: in vivo
[3] = Volume of distribution at steady state in mouse at 1 mg/kg, iv and 2 mg/kg, po; format: ADME, organism-based; conditions: in vivo, read-out: Vdss
[4] = test system: Mus musculus; assay: Antiobesity activity in eDIO mouse assessed as reduction of food intake at 12 mg/kg sc by continuous infusion pump qd for 7 days; format: functional, organism-based; set-up: dose 12 mg/kg
[5] = Ratio of drug level in brain to plasma in wild type CF1 mouse at 0.5 mg/kg after 4 hrs; format: ADME, organism-based; set-up: dose 0.5 mg/kg; conditions: read-out: BPR
[6] = test system: Mus musculus; assay: Inhibition of ex vivo PrCP engagement in eDIO mouse plasma at 60 mg/kg, sc by continuous infusion pump for 7 days; format: functional; conditions: 168 h, route subcutaneous
[7] = Drug level in wild type CF1 mouse plasma at 0.5 mg/kg after 4 hrs; format: ADME, organism-based; set-up: dose 0.5 mg/kg; conditions: read-out: Drug uptake
[8] = Ratio of drug level in brain to plasma in mdr1a deficient mouse at 0.5 mg/kg after 0.5 hrs; format: ADME, organism-based; set-up: dose 0.5 mg/kg; conditions: read-out: BPR
[9] = Plasma concentration in eDIO mouse at 12 mg/kg sc by continuous infusion pump qd for 7 days; format: ADME, organism-based; set-up: dose 12 mg/kg, route subcutaneous
[10] = Ratio of drug level in brain to plasma in wild type CF1 mouse at 0.5 mg/kg after 0.5 hrs; format: ADME, organism-based; set-up: dose 0.5 mg/kg; conditions: read-out: BPR
[11] = test system: Mus musculus; assay: Antiobesity activity in eDIO mouse assessed as reduction of body weight at 12 mg/kg sc by continuous infusion pump qd for 7 days; format: functional, organism-based; set-up: dose 12 mg/kg
[12] = Drug level in wild type CF1 mouse brain at 0.5 mg/kg after 4 hrs; format: ADME, organism-based; set-up: dose 0.5 mg/kg; conditions: read-out: Drug uptake
[13] = species on record: Mus musculus; conditions: Plasma, 30 mg/kg
Description: Inhibition of ex vivo PrCP engagement in eDIO mouse plasma at 30 mg/kg, sc by continuous infusion pump for 7 days

[14] = Drug level in mdr1a deficient mouse plasma at 0.5 mg/kg after 0.5 hrs; format: ADME, organism-based; set-up: dose 0.5 mg/kg; conditions: read-out: Drug uptake
[15] = Ratio of drug level in brain to plasma in mdr1a deficient mouse at 0.5 mg/kg after 4 hrs; format: ADME, organism-based; set-up: dose 0.5 mg/kg; conditions: read-out: BPR
[16] = Drug level in mdr1a deficient mouse brain at 0.5 mg/kg after 4 hrs; format: ADME, organism-based; set-up: dose 0.5 mg/kg; conditions: read-out: Drug uptake
[17] = Drug level in mdr1a deficient mouse plasma at 0.5 mg/kg after 4 hrs; format: ADME, organism-based; set-up: dose 0.5 mg/kg; conditions: read-out: Drug uptake
[18] = Plasma concentration in PrCP knockout mouse at 12 mg/kg sc by continuous infusion pump qd for 7 days; format: ADME, organism-based; set-up: dose 12 mg/kg, route subcutaneous
[19] = Plasma concentration in eDIO mouse at 10 to 60 mg/kg, sc by continuous infusion pump for 7 days; format: ADME, organism-based; set-up: dose 10-60 mg/kg, route subcutaneous
[20] = Half life in mouse at 1 mg/kg, iv and 2 mg/kg, po; format: ADME, organism-based; conditions: in vivo
[21] = Drug level in mdr1a deficient mouse brain at 0.5 mg/kg after 0.5 hrs; format: ADME, organism-based; set-up: dose 0.5 mg/kg; conditions: read-out: Drug uptake
[22] = Drug level in wild type CF1 mouse plasma at 0.5 mg/kg after 0.5 hrs; format: ADME, organism-based; set-up: dose 0.5 mg/kg; conditions: read-out: Drug uptake
[23] = Clearance in mouse at 1 mg/kg, iv and 2 mg/kg, po; format: ADME, organism-based; conditions: in vivo
[24] = test system: Mus musculus; assay: Antiobesity activity in PrCP knockout mouse assessed as reduction of body weight at 12 mg/kg sc by continuous infusion pump qd for 7 days; format: functional, organism-based; set-up: dose 12 mg/kg
[25] = species on record: Mus musculus; conditions: Plasma, 10 mg/kg
Description: Inhibition of ex vivo PrCP engagement in eDIO mouse plasma at 10 mg/kg, sc by continuous infusion pump for 7 days

[26] = test system: Mus musculus; assay: Inhibition of ex vivo PrCP engagement in eDIO mouse plasma at 60 mg/kg, sc by continuous infusion pump for 7 days additionally treated 2 uM of compound; format: functional; conditions: 168 h, route subcutaneous
[27] = target: T1, Lysosomal Pro-X carboxypeptidase; assay: Inhibition of mouse PrCP
[28] = Drug level in wild type CF1 mouse brain at 0.5 mg/kg after 0.5 hrs; format: ADME, organism-based; set-up: dose 0.5 mg/kg; conditions: read-out: Drug uptake
[29] = test system: Mus musculus; assay: Antiobesity activity in PrCP knockout mouse assessed as reduction of food intake at 12 mg/kg sc by continuous infusion pump qd for 7 days; format: functional, organism-based; set-up: dose 12 mg/kg

`O=C(CCN1CCC(c2cnccn2)CC1)N1CCC[C@H]1c1nc2cc(Cl)c(Cl)cc2[nH]1` showed an IC50 [1] of 8000 nM.
Work on `O=C(CCN1CCC(c2ccccc2)CC1)N1CCC[C@H]1c1nc2cc(Cl)c(Cl)cc2[nH]1` yielded an IC50 [1] of over 10000 nM.
`O=C(CCN1CCC(c2ccncc2)CC1)N1CCC[C@H]1c1nc2cc(Cl)c(Cl)cc2[nH]1` gave an IC50 [1] of 430 nM.
With `Cn1nc(C2CCN(CCC(=O)N3CCC[C@H]3c3nc4cc(Cl)c(Cl)cc4[nH]3)CC2)cc1-c1ccncc1` the bioavailability [2] was 4%, the Vd [3] was 9.4 L/kg and the Activity [4] was “Active”. It also gave a Kp at 4 h [5] of 0.88, an inhibition in vivo at 60 mg/kg [6] of 55% and a concentration at 4 h [7] of 4.6 nM. The Kp at 0.5 h [8] was 1.4, the concentration at 168 h [9] was 210 nM and the Kp at 0.5 h [10] was 0.2. The Activity [11] was “Active”, the concentration at 4 h [12] was 4 nM and the inhibition [13] was “Active”. It also gave a concentration at 0.5 h [14] of 51 nM, a Kp at 4 h [15] of 13 and a concentration at 4 h [16] of 54 nM. For the same molecule, the concentration at 4 h [17] was 4 nM, the concentration at 168 h [18] was 290 nM and the concentration at 168 h [19] was 90 nM. It also gave a half-life [20] of 246 min, a concentration at 0.5 h [21] of 70 nM and a concentration at 0.5 h [22] of 54 nM. For the same molecule, the clearance [23] was 65 mL/min/kg, the Activity [24] was “Active” and the inhibition [25] was “Active”. It also gave an inhibition in vivo at 60 mg/kg [26] of 80%, an IC50 [1] of 6.7 nM and an IC50 [27] of 0.8 nM. The concentration at 0.5 h [28] was 10 nM and the Activity [29] was “Active”.
Molecule `Cn1nc(C2CCN(CCC(=O)N3CCC[C@H]3c3nc4cc(Cl)c(Cl)cc4[nH]3)CC2)cc1-c1cccnc1` has an IC50 [1] of 39 nM.
For `O=C(CCN1CCC(c2nc(-c3ccncc3)no2)CC1)N1CCC[C@H]1c1nc2cc(Cl)c(Cl)cc2[nH]1`, the bioavailability [2] was 8%, the Vd [3] was 5.7 L/kg and the half-life [20] was 294 min. It also gave a clearance [23] of 38 mL/min/kg, an IC50 [1] of 29 nM and an IC50 [27] of 0.53 nM.
In the case of `O=C(O)c1ccc(-c2noc(C3CCN(CCC(=O)N4CCC[C@H]4c4nc5cc(Cl)c(Cl)cc5[nH]4)CC3)n2)cc1`, the IC50 [1] is reported as 241 nM.
Molecule `CS(=O)(=O)c1ccc(-c2noc(C3CCN(CCC(=O)N4CCC[C@H]4c4nc5cc(Cl)c(Cl)cc5[nH]4)C(=O)C3)n2)cc1` (stereo partly drawn) has a bioavailability [2] of 3%, a Vd [3] of 3 L/kg and a half-life [20] of 78 min. The clearance [23] was 115 mL/min/kg and the IC50 [1] was 425 nM.
For `O=C(CCN1CCC(c2nc(-c3ccccn3)no2)CC1)N1CCC[C@H]1c1nc2cc(Cl)c(Cl)cc2[nH]1`, the IC50 [1] was 173 nM and the IC50 [27] was 3.5 nM.
For `O=C(CCN1CCC(c2cn[nH]c2)CC1)N1CCC[C@H]1c1nc2cc(Cl)c(Cl)cc2[nH]1`, the IC50 [27] was 107 nM.
